Results: the supplement of paper PMC10307832

Tests used:
Assay in all cases: relative viability (nuclei count vs DMSO), 5 days (fraction); higher = more cells survive
[1] = compound: NS(=O)(=O)OC[C@@H]1C[C@@H](n2ccc3c(N[C@H]4CCc5ccccc54)ncnc32)C[C@@H]1O [MLN4924] + O=C(CCCCCCC(=O)Nc1ccccc1)NO [Vorinostat] (partner 1 µM)
Procedure, shortened: (§1)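 Each reported value is a median over duplicate plates. It expresses relative viability: treated-well nuclei count divided by vehicle-well nuclei count. Lung cancer cell lines in 1536-well plates were dosed by pin tool a day after seeding, alone with one drug or with a fixed anchor-drug dose plus five library-drug doses (not always all listed) in √10 steps, and nuclei were counted after 5 days.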

[2] = compound: CC[C@H](C)N1C=C(C2=C(C=C(C=C21)C3=CN=C(C=C3)N4CCNCC4)C(=O)NCC5=C(C=C(NC5=O)C)C)C [GSK126] + CC(=O)c1c(C)c2cnc(Nc3ccc(N4CCNCC4)cn3)nc2n(C2CCCC2)c1=O [Palbociclib] (partner 0.5 µM)
Procedure, shortened: as §1

[3] = compound: C1CC(C1)(C(=O)O)C(=O)O.[NH2-].[NH2-].[Pt+2] [Carboplatin] + C[C@@H](Oc1cc(-c2cnn(C3CCNCC3)c2)cnc1N)c1c(Cl)ccc(F)c1Cl [Crizotinib] (partner 1 µM)
Procedure, shortened: as §1

Cell Line | relative viability ([1]; first compound 0.04 µM) | relative viability ([1]; first compound 0.1265 µM) | relative viability ([1]; first compound 0.4 µM) | relative viability ([1]; first compound 1.265 µM) | relative viability ([1]; first compound 4 µM) | relative viability ([2]; first compound 0.08 µM) | relative viability ([2]; first compound 0.253 µM) | relative viability ([2]; first compound 0.8 µM) | relative viability ([2]; first compound 2.53 µM) | relative viability ([2]; first compound 8 µM) | relative viability ([3]; first compound 0.08 µM) | relative viability ([3]; first compound 0.253 µM) | relative viability ([3]; first compound 0.8 µM) | relative viability ([3]; first compound 2.53 µM) | relative viability ([3]; first compound 8 µM)
NCI-H1975 | 0.706 | 0.704 | 0.993 | 0.559 | 0.248 | 0.633 | 0.591 | 0.636 | 0.561 | 0.627 | 0.955 | 0.943 | 0.919 | 0.969 | 0.911
BEN | 0.434 | 0.463 | 0.431 | 0.268 | 0.238 | 0.482 | 0.41 | 0.5 | 0.506 | 0.473 | 1.15 | 0.946 | 0.78 | 0.79 | 0.761
NCI-H441 | 0.859 | 0.733 | 0.576 | 0.158 | 0.152 | 0.193 | 0.232 | 0.21 | 0.243 | 0.257 | 0.72 | 0.925 | 0.618 | 0.791 | 0.655
NCI-H2170 | 0.774 | 0.364 | 0.326 | 0.135 | 0.13 | 0.433 | 0.388 | 0.385 | 0.397 | 0.394 | 1.13 | 1.18 | 1.21 | 1.13 | 0.971
HCC-44 | 1.04 | 0.731 | 0.726 | 0.415 | 0.376 | 0.96 | 1.04 | 1.01 | 0.916 | 0.894 | 0.752 | 0.822 | 0.742 | 0.751 | 0.668
NCI-H3122 | 0.708 | 0.579 | 0.232 | 0.103 | 0.0771 | 0.225 | 0.181 | 0.181 | 0.183 | 0.187 | 0.3 | 0.299 | 0.275 | 0.323 | 0.28
NCI-H1650 | 0.411 | 0.352 | 0.22 | 0.109 | 0.176 | 0.393 | 0.359 | 0.37 | 0.377 | 0.32 | 1.2 | 0.968 | 0.907 | 0.824 | 0.533
NCI-H1355 | 0.592 | 0.629 | 0.496 | 0.236 | 0.227 | 0.446 | 0.365 | 0.417 | 0.405 | 0.413 | 1.16 | 1.18 | 1.02 | 1.02 | 1.02
NCI-H1734 | 0.792 | 0.565 | 0.208 | 0.132 | 0.113 | 0.384 | 0.348 | 0.342 | 0.375 | 0.333 | 0.682 | 0.673 | 0.637 | 0.716 | 0.614
LXF-289 | 0.654 | 0.506 | 0.462 | 0.143 | 0.115 | 0.586 | 0.625 | 0.588 | 0.602 | 0.629 | 0.821 | 0.839 | 0.708 | 0.796 | 0.764
RERF-LC-KJ | 0.579 | 0.328 | 0.205 | 0.192 | 0.236 | 1.15 | 1.27 | 1.02 | 1.04 | 1.09 | 0.824 | 0.861 | 0.84 | 0.72 | 0.631
NCI-H2087 | 0.784 | 0.43 | 0.135 | 0.0537 | 0.125 | 0.217 | 0.215 | 0.191 | 0.212 | 0.206 | 0.817 | 0.907 | 0.8 | 0.845 | 0.769
HCC-827 | 0.805 | 0.716 | 0.636 | 0.242 | 0.215 | 0.492 | 0.54 | 0.486 | 0.483 | 0.469 | 0.97 | 0.93 | 0.916 | 0.816 | 0.87
NCI-H23 | 0.521 | 0.441 | 0.197 | 0.134 | 0.142 | 0.6 | 0.583 | 0.565 | 0.628 | 0.515 | 0.638 | 0.542 | 0.516 | 0.488 | 0.39
HARA | 0.48 | 0.144 | 0.174 | 0.0809 | 0.0682 | 0.325 | 0.238 | 0.249 | 0.296 | 0.279 | 1.01 | 1.06 | 0.934 | 0.824 | 0.954
HCC-366 | 0.327 | 0.348 | 0.322 | 0.0422 | 0.0392 | 0.391 | 0.399 | 0.425 | 0.407 | 0.374 | 0.518 | 0.659 | 0.445 | 0.465 | 0.154
NCI-H838 | 0.631 | 0.4 | 0.284 | 0.168 | 0.151 | 0.264 | 0.223 | 0.202 | 0.212 | 0.234 | 0.838 | 0.918 | 0.784 | 0.861 | 0.797
NCI-H2023 | 0.548 | 0.457 | 0.166 | 0.0535 | 0.0695 | 0.505 | 0.442 | 0.349 | 0.442 | 0.399 | 0.633 | 0.604 | 0.566 | 0.419 | 0.144
HCC-78 | 0.442 | 0.309 | 0.5 | 0.245 | 0.225 | 0.473 | 0.38 | 0.497 | 0.461 | 0.492 | 0.367 | 0.325 | 0.315 | 0.308 | 0.304
ChaGo-K-1 | 0.681 | 0.593 | 0.299 | 0.167 | 0.174 | 0.93 | 0.905 | 0.914 | 1.04 | 0.914 | 1.14 | 1.09 | 0.943 | 0.647 | 0.579
EPLC-272H | 0.195 | 0.184 | 0.098 | 0.0963 | 0.144 | 0.344 | 0.324 | 0.33 | 0.374 | 0.301 | 0.975 | 1.05 | 0.892 | 0.888 | 0.937
LCLC-97TM1 | 0.742 | 0.503 | 0.0752 | 0.0454 | 0.0589 | 0.283 | 0.265 | 0.232 | 0.308 | 0.255 | 0.338 |  | 0.271 | 0.288 | 0.312
LK-2 | 0.271 | 0.277 | 0.227 | 0.509 | 0.198 | 0.682 | 0.657 | 0.738 | 0.558 | 0.681 | 0.196 | 0.224 | 0.242 | 0.233 | 0.228
CAL-12T | 0.792 | 0.921 | 0.409 | 0.259 | 0.144 | 0.491 | 0.458 | 0.515 | 0.416 | 0.41 | 0.856 | 0.7 | 0.738 | 0.66 | 0.707
NCI-H322M | 1.27 | 1.47 | 0.863 | 0.38 | 0.475 | 0.568 | 0.488 | 0.505 | 0.485 | 0.45 | 1.07 | 0.964 | 0.963 | 0.926 | 0.854
NCI-H2126 | 0.814 | 0.869 | 0.555 | 0.237 | 0.267 | 0.343 | 0.359 | 0.327 | 0.39 | 0.354 | 1.04 | 1.06 | 1.02 | 0.962 | 1
LU99A | 0.514 | 0.381 | 0.3 | 0.119 | 0.106 | 0.444 | 0.439 | 0.379 | 0.39 | 0.451 | 0.62 | 0.665 | 0.556 | 0.464 | 0.422
NCI-H1666 | 0.697 | 0.623 | 0.653 | 0.443 | 0.444 | 0.642 | 0.613 | 0.6 | 0.636 | 0.692 | 0.997 | 1.07 | 0.838 | 0.917 | 0.568
NCI-H520 | 0.499 | 0.499 | 0.321 | 0.177 | 0.223 | 0.21 | 0.233 | 0.221 | 0.209 | 0.268 | 0.943 | 0.914 | 0.709 | 0.576 | 0.601
